In US20170121315A1, “HETEROBICYCLICALLY SUBSTITUTED 4-OXOBUTANE ACID DERIVATIVES AND USE THEREOF” (priority 2014, published 2017):

Experiments:
[1] = biological target: T1, human macrophage elastase (HME/hMMP-12) (Homo sapiens, UniProt P39900); test: In vitro HME inhibition test (standard or high-sensitivity); type: biochemical; conditions: in some cases mean values, rounded to two significant figures
T1 construct: purchased R&D Systems 917-MP
How it was run: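 Autoactivated HME (0.5 nM; high-sensitivity format 0.05 nM, ~16 h) with 5 μM quenched Mca-PLGLEEA-Dap(Dnp)-NH2 substrate in HEPES pH 7.4, NaCl, CaCl2, ZnCl2, EDTA, Brij buffer, 2 h at 37° C. Fluorescence at ex 323/em 393 nm; IC50 from signal versus concentration.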

[2] = test system: rat hepatocytes; test: Hepatocyte assay for determination of metabolic stability; type: in vitro ADME; conditions: after incubation with rat hepatocytes
Method: The metabolic stability of test compounds towards hepatocytes is determined by incubating the compounds at low concentrations (preferably below or around 1 μM) and at low cell counts (preferably at 1*10^6 cells/ml) in order to ensure maximum linearity of kinetic conditions in the experiment. Seven samples from the incubation solution are taken for the LC-MS analysis within a fixed time pattern, in order to determine the half-life (i.e. the degradation) of the particular compound. This half-life is used to calculate various “Clearance” parameters (CL) and “Fmax” values (see below).
The CL and Fmax values are a measure of the phase 1 and phase 2 metabolism of the compounds in the hepatocytes. In order to minimize the influence of the organic solvent on the enzymes in the incubation batches, the concentration thereof is generally limited to 1% (acetonitrile) or 0.1% (DMSO).
For all species and breeds, a hepatocyte cell count in the liver of 1.1*10^8 cells/g of liver is expected.

T1 sequence (P39900 106-470): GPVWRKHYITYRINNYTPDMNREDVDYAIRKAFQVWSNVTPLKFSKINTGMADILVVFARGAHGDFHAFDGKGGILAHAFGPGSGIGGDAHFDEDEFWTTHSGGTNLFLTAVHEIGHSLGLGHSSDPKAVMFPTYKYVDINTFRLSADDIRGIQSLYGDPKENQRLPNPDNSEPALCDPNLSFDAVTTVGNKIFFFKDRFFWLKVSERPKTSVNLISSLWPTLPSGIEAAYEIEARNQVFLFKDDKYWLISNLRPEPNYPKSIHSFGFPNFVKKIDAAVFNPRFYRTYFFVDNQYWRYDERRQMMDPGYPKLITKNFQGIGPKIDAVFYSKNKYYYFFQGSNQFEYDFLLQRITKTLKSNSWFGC

SMILES	IC50 [1] [nM]	CLblood (calculated blood clearance, well-stirred) [2] [mL/min/kg]	Fmax (maximum possible bioavailability after oral administration, well-stirred) [2] [%]
NC(=O)c1cccc(COc2ccc3oc(C(=O)CC(CCn4nnc5ccccc5c4=O)C(=O)O)cc3c2)c1 (racemic) [Example 32, (+/−)-4-{5-[(3-Carbamoylbenzyl)oxy]-1-benzofur-2-yl}-4-oxo-2-[2-(4-oxo-1,2,3-benzotriazin-3(4H)-yl)ethyl]butanoic acid]	0.68	22	68.5
CCCCCOc1ccc2cc(C(=O)CC(CCn3nnc4ccccc4c3=O)C(=O)O)oc2c1 (single isomer, unassigned; (+)) [Example 57, (+)-4-Oxo-2-[2-(4-oxo-1,2,3-benzotriazin-3(4H)-yl)ethyl]-4-[6-(pentyloxy)-1-benzofur-2-yl]butanoic acid]	2.1	35.7	48.9
O=C(C[C@@H](CCn1nnc2ccccc2c1=O)C(=O)O)c1noc2cc(OCC3CCOCC3)ccc12 (single isomer, unassigned; enantiomer 1) [Example 134]	24	19.7	71.8
O=C(CC(CCn1nnc2ccccc2c1=O)C(=O)O)c1coc2cc(OCc3ccc(Cl)c(Cl)c3)ccc12 (single isomer, unassigned) [Example 94, 4-{6-[(3,4-Dichlorobenzyl)oxy]-1-benzofur-3-yl}-4-oxo-2-[2-(4-oxo-1,2,3-benzotriazin-3(4H)-yl)ethyl]butanoic acid]	0.82	25.8	63.2
O=C(CC(CCn1nnc2ccc(C(F)(F)F)cc2c1=O)C(=O)O)c1cc2ccc(OCC3CC3)cc2s1 (single isomer, unassigned; enantiomer 2) [Example 130, 4-[6-(Cyclopropylmethoxy)-1-benzothiophen-2-yl]-4-oxo-2-{2-[4-oxo-6-(trifluoromethyl)-1,2,3-benzotriazin-3(4H)-yl]ethyl}butanoic acid (enantiomer 2)]	0.12	34.8	50.3
CS(=O)(=O)c1ccc(COc2ccc3oc(C(=O)CC(CCn4nnc5ccccc5c4=O)C(=O)O)cc3c2)cc1 (racemic) [Example 38, (+/−)-4-(5-{[4-(Methylsulphonyl)benzyl]oxy}-1-benzofur-2-yl)-4-oxo-2-[2-(4-oxo-1,2,3-benzotriazin-3(4H)-yl)ethyl]butanoic acid]	0.72	12.5	82.1
